According to ChEMBL document CHEMBL1156270, “Small molecule JNK (c-Jun N-terminal kinase) inhibitors” (J Med Chem, 2010):
One block for each compound: values may come before it.

How the values were obtained:
[1] = molecular target: Mitogen-activated protein kinase 14 (Homo sapiens, UniProt Q16539); assay: Inhibition of p38alpha
[2] = molecular target: Mitogen-activated protein kinase 10 (Homo sapiens, UniProt P53779); assay: Inhibition of JNK3
[3] = molecular target: T1, Mitogen-activated protein kinase 8 (Homo sapiens, UniProt P45983); assay: Inhibition of JNK1
T1 sequence (P45983 whole entry): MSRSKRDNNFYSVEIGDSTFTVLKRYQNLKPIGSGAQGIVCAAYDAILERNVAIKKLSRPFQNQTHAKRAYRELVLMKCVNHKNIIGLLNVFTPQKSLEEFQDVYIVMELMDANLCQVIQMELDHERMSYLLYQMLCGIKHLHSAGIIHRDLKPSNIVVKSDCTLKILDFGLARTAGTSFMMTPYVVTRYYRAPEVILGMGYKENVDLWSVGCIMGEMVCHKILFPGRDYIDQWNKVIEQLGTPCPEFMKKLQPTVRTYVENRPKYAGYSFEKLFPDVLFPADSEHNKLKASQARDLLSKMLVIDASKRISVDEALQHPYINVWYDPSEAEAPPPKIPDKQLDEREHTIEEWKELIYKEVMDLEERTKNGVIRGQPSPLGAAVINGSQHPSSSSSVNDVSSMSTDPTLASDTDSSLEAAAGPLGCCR

Mus musculus [4] = assay: Reduction of body weight in diet-induced obese mouse at 30 mg/kg, po for 24 days; assay type: functional; set-up: scale not given: the % may be the effect or the level left
Mus musculus [5] = assay: Reduction of fat mass in diet-induced obese mouse at 30 mg/kg, po for 24 days relative to control; assay type: functional; set-up: scale not given: the % may be the effect or the level left
[6] = molecular target: Mitogen-activated protein kinase 9 (Homo sapiens, UniProt P45984); assay: Inhibition of JNK2
Chain of Mitogen-activated protein kinase 9 (P45984 whole entry): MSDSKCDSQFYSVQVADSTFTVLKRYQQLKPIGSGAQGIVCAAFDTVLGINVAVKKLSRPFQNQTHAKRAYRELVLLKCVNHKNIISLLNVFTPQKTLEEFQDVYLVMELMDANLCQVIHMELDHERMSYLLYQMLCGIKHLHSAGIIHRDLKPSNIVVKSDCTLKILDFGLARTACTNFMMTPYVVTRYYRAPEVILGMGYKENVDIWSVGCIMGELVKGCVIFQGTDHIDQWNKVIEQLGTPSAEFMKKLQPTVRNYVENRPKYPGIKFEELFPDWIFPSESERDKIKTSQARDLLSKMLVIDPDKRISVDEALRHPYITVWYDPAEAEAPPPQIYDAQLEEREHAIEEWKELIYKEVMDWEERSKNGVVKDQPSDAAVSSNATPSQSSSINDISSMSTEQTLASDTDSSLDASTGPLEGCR

[7] = molecular target: T1, Mitogen-activated protein kinase 8; assay: Binding affinity to JNK1
SCG = assay: Protection against NGF deprivation-induced neuronal apoptosis in rat SCG cells after 24 hrs by MTT assay; assay type: functional, cell-based
[8] = Oral bioavailability in rat; assay type: ADME, organism-based; conditions: in vivo
Mus musculus [9] = species on record: Mus musculus; assay: Inhibition of LPS-induced TNFalpha production in mouse; assay type: functional

Chain of Mitogen-activated protein kinase 10 (P53779 whole entry): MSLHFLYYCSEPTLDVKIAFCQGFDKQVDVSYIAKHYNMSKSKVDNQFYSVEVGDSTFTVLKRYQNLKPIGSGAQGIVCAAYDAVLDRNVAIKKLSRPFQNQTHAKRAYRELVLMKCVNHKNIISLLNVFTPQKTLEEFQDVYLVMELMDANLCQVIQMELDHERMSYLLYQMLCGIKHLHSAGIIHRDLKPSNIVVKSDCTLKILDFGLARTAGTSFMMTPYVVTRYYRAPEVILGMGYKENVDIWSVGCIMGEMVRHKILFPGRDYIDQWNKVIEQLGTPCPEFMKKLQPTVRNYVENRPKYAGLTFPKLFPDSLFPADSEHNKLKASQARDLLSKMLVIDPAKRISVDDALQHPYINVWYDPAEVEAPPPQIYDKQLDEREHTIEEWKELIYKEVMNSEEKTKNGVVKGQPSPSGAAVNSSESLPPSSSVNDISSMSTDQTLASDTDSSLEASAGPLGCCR
Chain of Mitogen-activated protein kinase 14 (Q16539 whole entry): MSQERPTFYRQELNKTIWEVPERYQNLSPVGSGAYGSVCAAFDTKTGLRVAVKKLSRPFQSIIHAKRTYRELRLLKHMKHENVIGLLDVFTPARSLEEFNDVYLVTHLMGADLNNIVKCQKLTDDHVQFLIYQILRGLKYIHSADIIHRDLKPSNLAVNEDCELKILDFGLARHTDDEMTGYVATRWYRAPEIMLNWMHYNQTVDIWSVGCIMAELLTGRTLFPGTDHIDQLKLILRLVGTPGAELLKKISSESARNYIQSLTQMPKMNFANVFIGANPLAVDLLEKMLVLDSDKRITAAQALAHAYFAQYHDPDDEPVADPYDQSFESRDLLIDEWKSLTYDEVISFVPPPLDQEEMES

IC50 [1]: 0.054 µM | IC50 [2]: 0.0109 µM
Compound: CCCNc1nccc(-c2c(-c3ccc(F)cc3)nc3n2[C@H](Cc2ccc(OC)cc2)CC3)n1

Kd [7]: 0.42 µM
Compound: H-RPKRPTTLNLF-OH

IC50 [1]: 0.903 µM | IC50 [3]: 0.101 µM | IC50 [2]: 0.003 µM
Compound: CN(C)CCCC(=O)Nc1cc(C(=O)O)cc(-c2n[nH]c3cc(Nc4ccccc4Cl)ccc23)c1

Ki [3]: 0.003 µM | Ki [6]: 0.006 µM | Ki [2]: 0.005 µM
Compound: CN(C)c1c(-c2ccnc(N[C@H]3CC[C@H](O)CC3)n2)cnn1Cc1ccccc1

IC50 [1]: 0.046 µM
Compound: O=C(NCCCn1cnc(-c2ccc(F)cc2)c1-c1ccncc1)c1ccccc1

The remaining lines, values behind:

Compound: c1ccc(Nc2ccc3c(-c4ccccc4)n[nH]c3c2)cc1
IC50 [3]: > 10 µM

Compound: O[C@H]1CC[C@H](Nc2nccc(-c3c[nH]nc3C3CCCOC3)n2)CC1 (some centres undefined)
Activity (Mus musculus [4]): 13% | Activity (Mus musculus [5]): 30.1% | Ki [3]: 0.009 µM | Ki [6]: 0.017 µM | Ki [2]: 0.016 µM

Compound: O=C(NCc1ccc(S(=O)(=O)N2CCC(n3nnc4ccccc43)CC2)s1)c1ccc(Cl)cc1
IC50 (SCG): 1.7 µM

Compound: N#C/C(=C1/Nc2ccccc2S1)c1ccnc(NCCc2cccnc2)n1
bioavailability [8]: 38% | ED50 (Mus musculus [9]): 3 mg/kg
